Reference: US7041677B2, “Use of monochloroflosequinan in the treatment of sexual dysfunction” (R.T. Alamo Ventures I, LLC, priority 2002, dated 2006)
“And” between values parts separate entries of the source, which are not always exact repeats. Equal entries are not always repeated. Marks after values point to notes of the source that are not given here.

Test system: male Cynomolgus monkeys (Macaca fascicularis)
Assay: Erection monitoring after single intracavernosal dose
Format: in vivo
Parameters: key to Onset Score / Duration Score: 0: no response; erection but transient—less than 1 minute; 2: erection lasting at least 1 minute but less than 5 minutes; 3: erection lasting at least 5 minutes but less than 7 minutes; 4: erection lasting longer than 7 minutes
Conditions: for Erection Score: Erection Score=2D+O; for Onset of Erection: minutes post administration; for Erection Index: Erection Score/n, n=number of animals (4 monkeys)
Method: In this example, various halogenated derivatives of flosequinan were evaluated for their ability to induce penile erections. A single intracavernosal dose (of a given halogenated derivative of flosequinan) was administered to male Cynomolgus monkeys (Macaca fascicularis). The Cynomolgus monkey was selected because it is an appropriate established non-rodent species to be used as an erectile dysfunction model. Before the application of the test substances the possible erectile effect of dimethylsulfoxide 25% (DMSO) at a dose volume of 0.15 ml was assessed. (Concentrations of test compounds of less than 10 mg/ml were administered in 25% DMSO. Concentrations of 10 mg/ml or greater were administered in 100% DMSO). An initial dose level of 0.625 mg/kg of the test substance and the derivatives were used. If an erectile effect of the initial dose level was observed 1.25 mg/kg and finally 2.5 mg/kg of each test substance was used. Between each dose level and change of test substance there was a wash out phase of three days [except on Days 1 to 4 (Monochloroflosequinan Racemate) and days 40 to 43 (Monofluoroflosequinan) of the study where there was a wash out phase of only two days between treatments]. Dose volume: A dose volume of 0.15 ml per animal was used. The test substances were prepared according to the following scheme. For each test substance 10 mg was diluted in 1 ml of DMSO. After the test substance was completely dissolved the solution was diluted stepwise 1:2 with double distilled water to the required dose level. The test substance was formulated on the day of the dosing and stored at room temperature. No stability test was required when the test substances were formulated on the day of dosing. Remaining test substances were stored at approximately -80° C. Sufficient purpose-bred naive Cynomolgus monkeys (Macaca fascicularis) were obtained from a recognized supplier in order to provide 4 healthy male animals. At the start of study the animals were in the weight range of 4 to 7 kg and approximately 4 to 6 years old. The animals were housed in a climate controlled room to provide a minimum of 10 air changes per hour. Routinely the temperature and relative humidity ranges were between 19-25° C. and 30-70% respectively. Artificial lighting was controlled automatically to give a cycle of 12 hours light and 12 hours dark. The animals were housed singly in stainless steel cages (dimensions: 600 mm×600 mm×800 mm; E. Becker & Co. GmbH, 44579 Castrop-Rauxel, Germany). Each animal was offered twice daily between 50 to 70 g of a commercial pellet diet for primates (Ssniff P10, Ssniff Spezialdiäten GmbH, Ferdinand-Gabriel-Weg 16, 59494 Soest, Germany). Every three months diet was analyzed for specific contaminants. Tap water was provided ad libtum via an automatic watering system or bottles, except during urine collection. The water was periodically analyzed for specific contaminants found to be present in the diet or water at levels that might interfere with achieving the objective of the study. Clinical Observations: In addition to the initial pharmacological effect (penile erection) monitoring, all animals were observed twice daily for signs of ill health or overt toxicity. An individual record was maintained of the clinical condition of each animal. Post-dosing observations were performed at the discretion of the Study Director. All animals were examined at the beginning and the end of the working hours. […] Body weights were recorded once before dosing. Food consumption was not recorded. For proof of erection capability the animals were checked once pre-dose with electrostimulation using a rectal probe under sedation with […]. […] The onset post drug administration and duration of erection were recorded. Table 5 (below) provides an “Erection Score” and “Erection Index” for the same selected halogenated flosequinan derivatives presented in Table 5. […]

[1] = 0.625 mg/ml intracavernosal, monkey 11539M
[2] = 0.625 mg/ml intracavernosal, monkey 11543M
[3] = 0.625 mg/ml intracavernosal, monkey 11584M
[4] = 0.625 mg/ml intracavernosal, monkey 11590M
[5] = 2.5 mg/ml intracavernosal, monkey 11539M
[6] = 2.5 mg/ml intracavernosal, monkey 11543M
[7] = 2.5 mg/ml intracavernosal, monkey 11584M
[8] = 2.5 mg/ml intracavernosal, monkey 11590M
[9] = 10 mg/ml intracavernosal, monkey 11539M
[10] = 10 mg/ml intracavernosal, monkey 11543M
[11] = 10 mg/ml intracavernosal, monkey 11584M
[12] = 10 mg/ml intracavernosal, monkey 11590M

Cn1cc([S+]([O-])CCl)c(=O)c2ccc(F)cc21 (racemic) [monochloroflosequinan, 3-chloromethylsulfinyl-7-fluoro-1-methyl-4-quinolone]
Duration Score [1]: 0
Onset Score [1]: 0
Erection Score [1]: 0
Duration Erection [2]: <1 min-^
Duration Score [2]: 0
Onset Score [2]: 0
Onset of Erection [2]: 70^a* min
Erection Score [2]: 0
Duration Score [3]: 0
Onset Score [3]: 0
Erection Score [3]: 0
Duration Score [4]: 0
Onset Score [4]: 0
Erection Score [4]: 0
Erection Index (0.625 mg/ml intracavernosal): 0
Duration Score [5]: 0
Onset Score [5]: 0
Erection Score [5]: 0
Duration Score [6]: 0
Onset Score [6]: 0
Erection Score [6]: 0
Duration Score [7]: 0
Onset Score [7]: 0
Erection Score [7]: 0
Duration Score [8]: 0
Onset Score [8]: 0
Erection Score [8]: 0
Erection Index (2.5 mg/ml intracavernosal): 0
Duration Score [9]: 0
Onset Score [9]: 0
Erection Score [9]: 0
Duration Score [10]: 0
Onset Score [10]: 0
Erection Score [10]: 0
Duration Score [11]: 0
Onset Score [11]: 0
Erection Score [11]: 0
Duration Score [12]: 0
Onset Score [12]: 0
Erection Score [12]: 0
Erection Index (10 mg/ml intracavernosal): 0

Cn1cc([S@+]([O-])CCl)c(=O)c2ccc(F)cc21 (single isomer, unassigned) [(+)-enantiomer of monochloroflosequinan]
Duration Erection [5]: <1 min
Duration Score [5]: 1 (erection but transient—less than 1 minute)
Onset Score [5]: 1 (erection onset longer than 10 minutes)
Onset of Erection [5]: 107* min
Erection Score [5]: 3
Duration Erection [6]: <1 min
Duration Score [6]: 1 (erection but transient—less than 1 minute)
Onset Score [6]: 1* (erection onset longer than 10 minutes)
Onset of Erection (2.5 mg/ml intracavernosal, monkey 11543M, listed as MONOCHLOROFLOSEQUINAN S(+)): 34* min and 38* min and 39^a* ejaculation min
Erection Score [6]: 3
Duration Score [7]: 1 (erection but transient—less than 1 minute)
Onset Score [7]: 1 (erection onset longer than 10 minutes)
Erection Score [7]: 3
Duration Score [8]: 3 (erection lasting at least 5 minutes but less than 7 minutes)
Onset Score [8]: 4 (erection onset 1 minute or less (immediate))
Erection Score [8]: 10
Erection Index (2.5 mg/ml intracavernosal): 4.8
Duration Score [9]: 0
Onset Score [9]: 4* (erection onset 1 minute or less (immediate))
Erection Score [9]: 4
Duration Score [10]: 0
Onset Score [10]: 0
Erection Score [10]: 0
Duration Erection [11]: <1 min
Duration Score [11]: 1 (erection but transient—less than 1 minute)
Onset Score [11]: 3* (erection onset between 2 and 4 minutes)
Erection Score [11]: 5
Duration Erection [12]: 8 min
Duration Score [12]: 4 (erection lasting longer than 7 minutes)
Onset Score [12]: 4 (erection onset 1 minute or less (immediate))
Onset of Erection [12]: immediate <1 min
Erection Score [12]: 12
Erection Index (10 mg/ml intracavernosal): 5.3
inducing penile erections (Cynomolgus monkeys, intracavernosal, summary of Tables 4 & 5): especially effective

Cn1cc([S@@+]([O-])CCl)c(=O)c2ccc(F)cc21 (single isomer, unassigned) [(−)-enantiomer of monochloroflosequinan]
Duration Score [9]: 0
Onset Score [9]: 0
Erection Score [9]: 0
Duration Score [10]: 0
Onset Score [10]: 0
Erection Score [10]: 0
Duration Score [11]: 0
Onset Score [11]: 0
Erection Score [11]: 0
Duration Erection [12]: 7 min
Duration Score [12]: 3 (erection lasting at least 5 minutes but less than 7 minutes)
Onset Score [12]: 4 (erection onset 1 minute or less (immediate))
Onset of Erection [12]: immediate <1 min
Erection Score [12]: 10
Erection Index (10 mg/ml intracavernosal): 2.5
